Data taken from the NIST ThermoML archive (doi:10.1016/j.jct.2016.07.012).
Values joined by “and” are separate entries in the source; they are usually repeats but may differ in a detail not shown here. Equal entries are not always repeated.

Assay: molar heat capacity at constant pressure
Settings: 101.33 kPa, Metastable crystal, Small (less than 1 g) adiabatic calorimetry

CCCCn1cc[n+](C)c1.F[P-](F)(F)(F)(F)F [1-butyl-3-methylimidazolium hexafluorophosphate]
Settings | molar heat capacity at constant pressure
5.14 K | 2.42 J/K/mol
5.39 K | 2.76 J/K/mol and 1.64 J/K/mol
5.67 K | 1.92 J/K/mol
5.74 K | 3.28 J/K/mol
6.01 K | 2.31 J/K/mol
6.1 K | 3.85 J/K/mol
6.43 K | 2.83 J/K/mol
6.54 K | 4.59 J/K/mol
6.93 K | 3.51 J/K/mol
7.06 K | 5.54 J/K/mol
7.43 K | 4.3 J/K/mol
7.59 K | 6.57 J/K/mol
7.94 K | 5.16 J/K/mol
8.12 K | 7.67 J/K/mol
8.46 K | 6.12 J/K/mol
8.66 K | 8.84 J/K/mol
8.98 K | 7.15 J/K/mol
9.2 K | 10.06 J/K/mol
9.51 K | 8.25 J/K/mol
9.75 K | 11.33 J/K/mol
10.05 K | 9.41 J/K/mol
10.36 K | 12.83 J/K/mol
10.66 K | 10.82 J/K/mol
11.05 K | 14.53 J/K/mol
11.34 K | 12.43 J/K/mol
11.75 K | 16.3 J/K/mol
12.02 K | 14.11 J/K/mol
12.45 K | 18.11 J/K/mol
12.71 K | 15.86 J/K/mol
13.16 K | 19.96 J/K/mol
13.41 K | 17.66 J/K/mol
13.87 K | 21.84 J/K/mol
14.11 K | 19.5 J/K/mol
14.59 K | 23.69 J/K/mol
14.82 K | 21.33 J/K/mol
15.31 K | 25.67 J/K/mol
15.64 K | 23.71 J/K/mol
16.14 K | 28.07 J/K/mol
16.58 K | 26.38 J/K/mol
17.09 K | 30.62 J/K/mol
17.53 K | 28.96 J/K/mol
18.04 K | 33.1 J/K/mol
18.47 K | 31.53 J/K/mol
18.99 K | 35.56 J/K/mol
19.42 K | 34.1 J/K/mol
19.94 K | 37.99 J/K/mol
20.38 K | 36.68 J/K/mol
21.2 K | 41.25 J/K/mol
21.63 K | 40.09 J/K/mol
22.78 K | 45.26 J/K/mol
23.2 K | 44.28 J/K/mol
24.36 K | 49.25 J/K/mol
24.78 K | 48.5 J/K/mol
25.94 K | 53.1 J/K/mol
26.36 K | 52.53 J/K/mol
27.42 K | 56.44 J/K/mol
27.74 K | 55.76 J/K/mol
28.99 K | 60 J/K/mol
29.16 K | 59.25 J/K/mol
30.59 K | 63.64 J/K/mol
30.76 K | 63.06 J/K/mol
32.36 K | 67.48 J/K/mol
32.52 K | 67.01 J/K/mol
34.28 K | 71.38 J/K/mol
34.44 K | 71.11 J/K/mol
36.21 K | 75.09 J/K/mol
36.36 K | 74.97 J/K/mol
38.14 K | 78.66 J/K/mol
38.29 K | 78.65 J/K/mol
40.07 K | 82.09 J/K/mol
40.21 K | 82.2 J/K/mol
42.09 K | 85.6 J/K/mol
42.23 K | 85.83 J/K/mol
44.21 K | 89.2 J/K/mol
44.36 K | 89.57 J/K/mol
46.33 K | 92.75 J/K/mol
46.49 K | 93.18 J/K/mol
48.45 K | 96.18 J/K/mol
48.62 K | 96.7 J/K/mol
50.58 K | 99.47 J/K/mol
50.75 K | 100 J/K/mol
52.71 K | 102.6 J/K/mol
52.88 K | 103.3 J/K/mol
54.84 K | 105.6 J/K/mol
55.01 K | 106.3 J/K/mol
56.97 K | 108.5 J/K/mol
57.15 K | 109.3 J/K/mol
59.11 K | 111.3 J/K/mol
59.29 K | 112.2 J/K/mol
61.24 K | 114 J/K/mol
61.43 K | 115 J/K/mol
63.37 K | 116.6 J/K/mol
63.57 K | 117.8 J/K/mol
65.51 K | 119.2 J/K/mol
65.71 K | 120.5 J/K/mol
67.65 K | 121.8 J/K/mol
67.86 K | 123.3 J/K/mol
69.79 K | 124.4 J/K/mol
70.01 K | 126 J/K/mol
72.04 K | 127 J/K/mol
72.26 K | 128.8 J/K/mol
74.39 K | 129.8 J/K/mol
74.61 K | 131.7 J/K/mol
76.74 K | 132.5 J/K/mol
76.97 K | 134.6 J/K/mol
78.34 K | 134.5 J/K/mol
78.72 K | 137.3 J/K/mol
79.09 K | 135.1 J/K/mol
79.34 K | 137.4 J/K/mol
80.13 K | 136.3 J/K/mol
80.5 K | 139.2 J/K/mol
81.45 K | 137.7 J/K/mol
81.7 K | 140.2 J/K/mol
81.8 K | 138.1 J/K/mol
82.15 K | 141.2 J/K/mol
83.48 K | 139.8 J/K/mol
83.81 K | 140.2 J/K/mol
83.82 K | 143 J/K/mol
84.07 K | 142.9 J/K/mol
85.17 K | 141.6 J/K/mol
85.49 K | 145 J/K/mol
86.86 K | 143.5 J/K/mol
87.17 K | 146.9 J/K/mol
88.56 K | 145.3 J/K/mol
88.85 K | 148.6 J/K/mol
90.27 K | 147.2 J/K/mol
90.55 K | 150.8 J/K/mol
91.99 K | 149 J/K/mol
92.25 K | 152.7 J/K/mol
93.71 K | 150.9 J/K/mol
93.96 K | 154.7 J/K/mol
95.45 K | 152.7 J/K/mol
95.67 K | 156.7 J/K/mol
97.19 K | 154.7 J/K/mol
97.39 K | 159.1 J/K/mol
98.94 K | 156.5 J/K/mol
99.12 K | 160.7 J/K/mol
100.69 K | 158.4 J/K/mol
100.85 K | 162.3 J/K/mol
102.5 K | 160.3 J/K/mol
102.65 K | 164.4 J/K/mol
104.38 K | 162.4 J/K/mol
104.51 K | 166.4 J/K/mol
106.27 K | 164.4 J/K/mol
106.38 K | 168.5 J/K/mol
108.17 K | 166.5 J/K/mol
108.26 K | 170.5 J/K/mol
110.06 K | 168.6 J/K/mol
110.13 K | 172.5 J/K/mol
111.96 K | 170.7 J/K/mol
112.01 K | 174.6 J/K/mol
113.86 K | 172.8 J/K/mol
113.9 K | 176.6 J/K/mol
115.77 K | 174.9 J/K/mol
115.78 K | 178.7 J/K/mol
117.67 K | 180.7 J/K/mol
117.68 K | 177.1 J/K/mol
119.56 K | 182.8 J/K/mol
119.59 K | 179.2 J/K/mol
121.46 K | 184.9 J/K/mol
121.5 K | 181.4 J/K/mol
123.35 K | 186.9 J/K/mol
123.41 K | 183.7 J/K/mol
125.25 K | 189.1 J/K/mol
